These results are taken from patent US20200062773A1, “4,4a,5,7-TETRAHYDRO-3H-FURO[3,4-b]PYRIDINYL COMPOUNDS” (Janssen Pharmaceutlca NV, priority 2016, published 2020).

The subject of assay [1] is Abeta 1-42 produced and secreted into the medium of human neuroblastoma SKNBE2 cells. Put plainly: Cellular αLisa assay in SKNBE2 cells. In kind it is cell-based. To be noted: human neuroblastoma SKNBE2 cells expressing hAPP695, 18 hours incubation; for IC50: Homo sapiens, SKNBE2, 18 h, read-out: Cellular αLisa assay in SKNBE2 cells Abeta 42 pIC50 (converted). The method, then: Cellular αLisa Assay in SKNBE2 Cells
In two αLisa assays the levels of Abeta 1-42 produced and secreted into the medium of human neuroblastoma SKNBE2 cells are quantified. The assay is based on the human neuroblastoma SKNBE2 expressing the wild type Amyloid Precursor Protein (hAPP695). The compounds are diluted and added to these cells, incubated for 18 hours and then measurements of Abeta 1-42 are taken. Abeta 1-42 are measured by sandwich αLisa. αLisa is a sandwich assay using biotinylated antibody AbN/25 attached to streptavidin coated beads and antibody cAb42/26 conjugated acceptor beads for the detection of Abeta 1-42 respectively. In the presence of Abeta 1-42, the beads come into close proximity. The excitation of the donor beads provokes the release of singlet oxygen molecules that trigger a cascade of energy transfer in the acceptor beads, resulting in light emission. Light emission is measured after 1 hour incubation (excitation at […] and emission at 615 nm).
(§1) A best-fit curve is fitted by a minimum sum of squares method to the plot of % Controlmin versus compound concentration. From this an IC50 value (inhibitory concentration causing 50% inhibition of activity) can be obtained.

In the next assay the target is T1, BACE1 (Homo sapiens, UniProt P56817).
T1 construct: recombinant BACE1 protein in a final concentration of 1 μg/ml
T1 sequence (P56817 46-501): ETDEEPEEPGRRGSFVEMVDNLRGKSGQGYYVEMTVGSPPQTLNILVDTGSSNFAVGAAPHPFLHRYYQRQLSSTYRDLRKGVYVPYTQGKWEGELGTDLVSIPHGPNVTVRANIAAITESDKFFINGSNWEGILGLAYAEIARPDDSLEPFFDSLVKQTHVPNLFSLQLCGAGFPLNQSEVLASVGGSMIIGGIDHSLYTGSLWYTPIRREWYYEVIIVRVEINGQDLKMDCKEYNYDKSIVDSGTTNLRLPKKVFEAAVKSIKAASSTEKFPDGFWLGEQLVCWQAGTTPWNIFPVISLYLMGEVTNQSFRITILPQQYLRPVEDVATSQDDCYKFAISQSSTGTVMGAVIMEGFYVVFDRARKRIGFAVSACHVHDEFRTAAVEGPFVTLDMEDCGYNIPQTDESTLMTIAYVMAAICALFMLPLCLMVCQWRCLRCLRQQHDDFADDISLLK
Put plainly: BACE1 biochemical FRET based assay. To be noted: Method 1: recombinant BACE1 1 μg/ml, 120 min at room temperature, pH 5.0; for IC50: read-out: Biochemical FRET based assay pIC50 (converted).
From the text: BACE1 Biochemical Fret Based Assay
(§2) This assay is a Fluorescence Resonance Energy Transfer Assay (FRET) based assay. The substrate for this assay is an APP derived 13 amino acids peptide that contains the ‘Swedish’ Lys-Met/Asn-Leu mutation of the amyloid precursor protein (APP) beta-site APP-cleaving enzyme cleavage site. This substrate also contains two fluorophores: (7-methoxycoumarin-4-yl) acetic acid (Mca) is a fluorescent donor with excitation wavelength at 320 nm and emission at 405 nm and 2,4-Dinitrophenyl (Dnp) is a proprietary quencher acceptor. […] Upon cleavage by BACE1, the fluorophore Mca is separated from the quenching group Dnp, restoring the full fluorescence yield of the donor. The increase in fluorescence is linearly related to the rate of proteolysis.
Briefly in a 384-well format recombinant BACE1 protein in a final concentration of 1 μg/ml is incubated for 120 minutes at room temperature with 10 μm substrate in incubation buffer (40 mM Citrate buffer pH 5.0, 0.04% PEG, 4% DMSO) in the absence or presence of compound. Next the amount of proteolysis is directly measured by fluorescence measurement at T=0 and T=120 (excitation at 320 nm and emission at 405 nm). Results are expressed in RFU (Relative Fluorescence Units), as difference between T120 and T0.
as §1

For the next assay, the target named is T2, BACE2 (Homo sapiens, UniProt Q9Y5Z0).
T2 construct: recombinant BACE2 protein in a final concentration of 0.4 μg/ml
T2 sequence (Q9Y5Z0 63-518): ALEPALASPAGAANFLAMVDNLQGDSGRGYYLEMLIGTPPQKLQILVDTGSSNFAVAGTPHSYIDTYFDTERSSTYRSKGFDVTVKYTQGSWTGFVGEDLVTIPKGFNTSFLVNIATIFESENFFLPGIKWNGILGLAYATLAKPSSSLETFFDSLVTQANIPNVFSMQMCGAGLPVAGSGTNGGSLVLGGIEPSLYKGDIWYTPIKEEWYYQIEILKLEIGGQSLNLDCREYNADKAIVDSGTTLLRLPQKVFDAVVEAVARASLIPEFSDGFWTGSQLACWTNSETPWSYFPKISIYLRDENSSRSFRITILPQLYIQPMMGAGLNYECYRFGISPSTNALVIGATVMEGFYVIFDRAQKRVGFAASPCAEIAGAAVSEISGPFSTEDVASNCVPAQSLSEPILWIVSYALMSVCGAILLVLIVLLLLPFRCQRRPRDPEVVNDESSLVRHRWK
Put plainly: BACE2 biochemical FRET based assay. To be noted: recombinant BACE2, 450 minutes at room temperature, pH 5.0.
From the text: BACE2 Biochemical FRET Based Assay
as §2, with “assay” for “assay is an APP derived 13 amino acids peptide that”, “the beta-site APP-cleaving enzyme,” for “BACE1,”
Briefly in a 384-well format recombinant BACE2 protein in a final concentration of 0.4 μg/ml is incubated for 450 minutes at room temperature with 10 μM substrate in incubation buffer (50 mM Citrate buffer pH 5.0, 0.05% PEG, no DMSO) in the absence or presence of compound. Next the amount of proteolysis is directly measured by fluorescence measurement at T=0 and T=450 (excitation at 320 nm and emission at 405 nm). Results are expressed in RFU (Relative Fluorescence Units), as difference between T450 and T0.
as §1

A value given as a limit tells only on which side of the number the result lay.

For `C[C@H]1OC[C@]2(c3cc(NC(=O)c4cnc(OCF)cn4)ccc3F)N=C(N)[C@](C)(C#N)C[C@H]12` (single isomer, unassigned) [9b], the “Cellular αLisa assay in SKNBE2 cells Abeta 42 pIC50” value (from here on “Cellular αLisa assay”) in assay [1] is recorded as 8.74. The “Biochemical FRET based assay pIC50” value is given as 8.28 on BACE1 and 7.19 at BACE2.

For `C[C@@H]1OC[C@@]2(c3cc(NC(=O)c4cnc(OCF)cn4)ccc3F)N=C(N)[C@@](C)(C#N)C[C@@H]12` (single isomer, unassigned) [9c], in assay [1], the “Cellular αLisa assay” value amounted to 5.8. The entries for the “Biochemical FRET based assay pIC50” value at BACE1 and at BACE2 were 5.76 and under 5, respectively.

With `C[C@H]1OC[C@]2(c3cc(NC(=O)c4ccc(F)cn4)ccc3F)N=C(N)[C@](C)(C#N)C[C@H]12` (single isomer, unassigned) [10b], in assay [1], the “Cellular αLisa assay” value is on record as 8.23. For the same molecule, the “Biochemical FRET based assay pIC50” value worked out at 8.25 on BACE1 and 8.28 on BACE2.

As for `C[C@@H]1OC[C@@]2(c3cc(NC(=O)c4ccc(F)cn4)ccc3F)N=C(N)[C@@](C)(C#N)C[C@@H]12` (single isomer, unassigned) [10c], the “Cellular αLisa assay” value in assay [1] was 5.29. The “Biochemical FRET based assay pIC50” value was 5.01 at BACE1 and under 5 on BACE2.

Turning to `COc1cnc(C(=O)Nc2ccc(F)c([C@]34CO[C@H](C)[C@H]3C[C@@](C)(S(C)(=O)=O)C(N)=N4)c2)cn1` (single isomer, unassigned) [13a], in assay [1], the “Cellular αLisa assay” value is reported as 7.19. Further, the “Biochemical FRET based assay pIC50” value is 7 at BACE1 and 5.9 on BACE2.

Regarding `COc1cnc(C(=O)Nc2ccc(F)c([C@@]34CO[C@@H](C)[C@@H]3C[C@@](C)(S(C)(=O)=O)C(N)=N4)c2)cn1` (single isomer, unassigned) [13b], in assay [1], the “Cellular αLisa assay” value was found to be 5.75. Moreover, the entries for the “Biochemical FRET based assay pIC50” value at BACE1 and on BACE2 were 5.48 and under 5, respectively.

With `COc1cnc(C(=O)Nc2ccc(F)c([C@@]34CO[C@@H](C)[C@@H]3C[C@](C)(S(C)(=O)=O)C(N)=N4)c2)cn1` (single isomer, unassigned) [13c], the “Cellular αLisa assay” value in assay [1] was 6.21. In addition, the “Biochemical FRET based assay pIC50” value on BACE1 is recorded as 6.05; on BACE2, 5.41.

In the case of `COc1cnc(C(=O)Nc2ccc(F)c([C@]34CO[C@H](C)[C@H]3C[C@](C)(S(C)(=O)=O)C(N)=N4)c2)cn1` (single isomer, unassigned) [13d], the “Cellular αLisa assay” value in assay [1] is reported as under 5.05. For the same molecule, the “Biochemical FRET based assay pIC50” value at BACE1 and on BACE2 was under 5 in each case.

In the case of `N#Cc1ccc(C(=O)Nc2ccc(F)c([C@@]34CO[C@@H](C(F)(F)F)[C@@H]3CCC(N)=N4)c2)nc1` [11b], the “Cellular αLisa assay” value in assay [1] is on record as 5.9.

`Cl.NC1=N[C@]2(c3cc(NC(=O)c4ccc(F)cn4)ccc3F)CO[C@@H](C(F)(F)F)[C@@H]2CC1` [12b]: the “Cellular αLisa assay” value in assay [1] turned out to be 5.45. In addition, the “Biochemical FRET based assay pIC50” value on BACE1 was found to be 5.27.

`CC(C)(F)[C@H]1OC[C@]2(c3cc(NC(=O)c4ccc(C#N)cn4)ccc3F)N=C(N)[C@](C)(C#N)C[C@H]12` [21a]: in assay [1], the “Cellular αLisa assay” value was 8.62.

For `CC1(C#N)CC2C(CF)OCC2(c2cc(NC(=O)c3ccc(C#N)cn3)ccc2F)N=C1N` (stereo not shown) [24a], the IC50 was 2.88 nM in assay [1] and 2.14 nM on BACE1.

On to `Cc1cc(C#N)cnc1C(=O)Nc1ccc(F)c(C23COC(C(C)(F)F)C2CC(C)(C#N)C(N)=N3)c1` (stereo not shown) [compound 37], for which the IC50 in assay [1] is 1.78 nM; at BACE1, 1.91 nM.

Turning to `CC1(C#N)CC2C(C(C)(F)F)OCC2(c2cc(NC(=O)c3cnc(OC(F)F)cn3)ccc2F)N=C1N` (stereo not shown) [compound 38], the values for the IC50 (in assay [1]; on BACE1) were 3.8 nM and 0.955 nM, respectively.
